Results published in publication PMC7714403 (JCI Insight, 2020).
Where two headings read alike, the source gives them in different places.

Assays:
Experiment in all cases: KiNativ, MOLM13 live cells
Format in all cases: cell-based
AurA = target: T1, AurA (Homo sapiens, UniProt O14965); settings: MOLM-13, 2 h, 100 nM
T1 sequence (O14965 1-403): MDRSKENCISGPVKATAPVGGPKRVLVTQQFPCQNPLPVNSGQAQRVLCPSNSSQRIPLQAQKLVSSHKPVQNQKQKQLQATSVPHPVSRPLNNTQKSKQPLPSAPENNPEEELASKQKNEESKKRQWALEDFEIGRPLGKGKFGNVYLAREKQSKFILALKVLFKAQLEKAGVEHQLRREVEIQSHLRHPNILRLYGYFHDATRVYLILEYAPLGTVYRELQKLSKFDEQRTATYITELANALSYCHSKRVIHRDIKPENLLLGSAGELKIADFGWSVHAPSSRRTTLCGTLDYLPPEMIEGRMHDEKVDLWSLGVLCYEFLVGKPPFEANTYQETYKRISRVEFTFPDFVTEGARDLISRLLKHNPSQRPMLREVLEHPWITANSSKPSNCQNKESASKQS
Procedure: (§1) Samples were analyzed by KiNativ in situ kinase profiling by ActivX Biosciences.

CDK10 = CDK10 (Homo sapiens, UniProt Q15131); settings: MOLM-13; 100 nM, 2 hours; Lys2; read-out: Inhibition vs DMSO
Procedure: as §1

CaMK1d = CaMK1d (Homo sapiens, UniProt Q8IU85); settings: MOLM-13; 100 nM, 2 hours; Lys1; read-out: Inhibition vs DMSO
Procedure: as §1

CaMKK2 = CaMKK2 (Homo sapiens, UniProt Q96RR4); settings: MOLM-13, 2 h, 100 nM
Procedure: as §1

DNAPK = DNAPK (Homo sapiens, UniProt P78527); settings: MOLM-13, 2 h, 100 nM, ATP, read-out: Inhibition vs DMSO
Procedure: as §1

IRAK3 = target: T2, IRAK3 (Homo sapiens, UniProt Q9Y616); settings: MOLM-13; 100 nM, 2 hours; Lys1; read-out: Inhibition vs DMSO
T2 sequence (Q9Y616 1-596): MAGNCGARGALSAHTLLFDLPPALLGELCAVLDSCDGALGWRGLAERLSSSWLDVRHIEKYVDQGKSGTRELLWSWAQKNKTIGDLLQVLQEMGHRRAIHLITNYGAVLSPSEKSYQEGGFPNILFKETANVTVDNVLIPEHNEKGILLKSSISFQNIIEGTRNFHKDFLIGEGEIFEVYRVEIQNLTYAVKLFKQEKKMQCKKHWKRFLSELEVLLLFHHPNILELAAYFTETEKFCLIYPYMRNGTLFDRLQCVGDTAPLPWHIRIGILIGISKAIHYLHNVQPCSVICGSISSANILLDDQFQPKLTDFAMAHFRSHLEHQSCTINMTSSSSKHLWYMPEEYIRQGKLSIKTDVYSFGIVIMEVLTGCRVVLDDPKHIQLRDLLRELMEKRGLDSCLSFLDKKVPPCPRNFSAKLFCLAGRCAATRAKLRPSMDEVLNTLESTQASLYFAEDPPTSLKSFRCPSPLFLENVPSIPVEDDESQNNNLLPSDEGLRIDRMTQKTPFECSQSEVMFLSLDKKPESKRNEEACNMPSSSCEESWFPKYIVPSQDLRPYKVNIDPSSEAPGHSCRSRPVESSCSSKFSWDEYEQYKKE
Procedure: as §1

IRAK4 = target: T3, IRAK4 (Homo sapiens, UniProt Q9NWZ3); settings: 100 nM, 2 hours
T3 sequence (Q9NWZ3 1-460): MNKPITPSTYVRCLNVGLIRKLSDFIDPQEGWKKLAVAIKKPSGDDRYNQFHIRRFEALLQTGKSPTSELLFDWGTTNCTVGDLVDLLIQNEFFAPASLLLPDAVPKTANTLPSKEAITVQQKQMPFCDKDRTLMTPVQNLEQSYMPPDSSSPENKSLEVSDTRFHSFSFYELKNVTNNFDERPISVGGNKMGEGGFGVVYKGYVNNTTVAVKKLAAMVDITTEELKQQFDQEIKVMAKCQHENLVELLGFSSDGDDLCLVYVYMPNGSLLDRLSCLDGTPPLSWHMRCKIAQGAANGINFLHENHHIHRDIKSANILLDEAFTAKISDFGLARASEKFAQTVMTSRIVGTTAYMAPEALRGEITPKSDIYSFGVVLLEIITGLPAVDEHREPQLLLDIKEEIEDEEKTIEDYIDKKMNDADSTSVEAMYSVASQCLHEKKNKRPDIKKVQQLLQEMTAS
Procedure: as §1

MAP2K5 = MAP2K5 (Homo sapiens, UniProt Q13163); settings: MOLM-13; 100 nM, 2 hours; Lys2; read-out: Inhibition vs DMSO
Procedure: as §1

MAP3K3 = MAP3K3 (Homo sapiens, UniProt Q99759); settings: MOLM-13; 100 nM, 2 hours; Lys1; read-out: Inhibition vs DMSO
Procedure: as §1

MAPKAPK3 = MAPKAPK3 (Homo sapiens, UniProt Q16644); settings: MOLM-13; 100 nM, 2 hours; ATP Loop; read-out: Inhibition vs DMSO
Procedure: as §1

MST1 = MST1 (Homo sapiens, UniProt Q13043); settings: 100 nM, 2 hours; Lys1
Procedure: as §1

MST3 = MST3 (Homo sapiens, UniProt Q9Y6E0); settings: 100 nM, 2 hours; Lys2
Procedure: as §1

NDR1 = NDR1 (Homo sapiens, UniProt Q15208); settings: MOLM-13, 2 h, 100 nM
Procedure: as §1

PAK2 = PAK2 (Homo sapiens, UniProt Q13177); settings: MOLM-13, 2 h, 100 nM
Procedure: as §1

PCTAIRE2 = PCTAIRE2 (Homo sapiens, UniProt Q00537); settings: MOLM-13; 100 nM, 2 hours; Lys2; read-out: Inhibition vs DMSO
Procedure: as §1

PIK3CG = PIK3CG (Homo sapiens, UniProt P48736); settings: MOLM-13; 100 nM, 2 hours; ATP; read-out: Inhibition vs DMSO
Procedure: as §1

TLK2 = TLK2 (Homo sapiens, UniProt Q86UE8); settings: MOLM-13; 100 nM, 2 hours; Lys2; read-out: Inhibition vs DMSO
Procedure: as §1

TYK2 domain2 = target: T4, TYK2 domain2 (Homo sapiens, UniProt P29597); settings: 100 nM, 2 hours; Activation Loop
T4 construct: TYK2 domain2
Procedure: as §1

[1] = Lys1, read-out: Inhibition vs DMSO
[2] = Lys2, read-out: Inhibition vs DMSO

Sequence of DNAPK (P78527 2-4128 limits assumed): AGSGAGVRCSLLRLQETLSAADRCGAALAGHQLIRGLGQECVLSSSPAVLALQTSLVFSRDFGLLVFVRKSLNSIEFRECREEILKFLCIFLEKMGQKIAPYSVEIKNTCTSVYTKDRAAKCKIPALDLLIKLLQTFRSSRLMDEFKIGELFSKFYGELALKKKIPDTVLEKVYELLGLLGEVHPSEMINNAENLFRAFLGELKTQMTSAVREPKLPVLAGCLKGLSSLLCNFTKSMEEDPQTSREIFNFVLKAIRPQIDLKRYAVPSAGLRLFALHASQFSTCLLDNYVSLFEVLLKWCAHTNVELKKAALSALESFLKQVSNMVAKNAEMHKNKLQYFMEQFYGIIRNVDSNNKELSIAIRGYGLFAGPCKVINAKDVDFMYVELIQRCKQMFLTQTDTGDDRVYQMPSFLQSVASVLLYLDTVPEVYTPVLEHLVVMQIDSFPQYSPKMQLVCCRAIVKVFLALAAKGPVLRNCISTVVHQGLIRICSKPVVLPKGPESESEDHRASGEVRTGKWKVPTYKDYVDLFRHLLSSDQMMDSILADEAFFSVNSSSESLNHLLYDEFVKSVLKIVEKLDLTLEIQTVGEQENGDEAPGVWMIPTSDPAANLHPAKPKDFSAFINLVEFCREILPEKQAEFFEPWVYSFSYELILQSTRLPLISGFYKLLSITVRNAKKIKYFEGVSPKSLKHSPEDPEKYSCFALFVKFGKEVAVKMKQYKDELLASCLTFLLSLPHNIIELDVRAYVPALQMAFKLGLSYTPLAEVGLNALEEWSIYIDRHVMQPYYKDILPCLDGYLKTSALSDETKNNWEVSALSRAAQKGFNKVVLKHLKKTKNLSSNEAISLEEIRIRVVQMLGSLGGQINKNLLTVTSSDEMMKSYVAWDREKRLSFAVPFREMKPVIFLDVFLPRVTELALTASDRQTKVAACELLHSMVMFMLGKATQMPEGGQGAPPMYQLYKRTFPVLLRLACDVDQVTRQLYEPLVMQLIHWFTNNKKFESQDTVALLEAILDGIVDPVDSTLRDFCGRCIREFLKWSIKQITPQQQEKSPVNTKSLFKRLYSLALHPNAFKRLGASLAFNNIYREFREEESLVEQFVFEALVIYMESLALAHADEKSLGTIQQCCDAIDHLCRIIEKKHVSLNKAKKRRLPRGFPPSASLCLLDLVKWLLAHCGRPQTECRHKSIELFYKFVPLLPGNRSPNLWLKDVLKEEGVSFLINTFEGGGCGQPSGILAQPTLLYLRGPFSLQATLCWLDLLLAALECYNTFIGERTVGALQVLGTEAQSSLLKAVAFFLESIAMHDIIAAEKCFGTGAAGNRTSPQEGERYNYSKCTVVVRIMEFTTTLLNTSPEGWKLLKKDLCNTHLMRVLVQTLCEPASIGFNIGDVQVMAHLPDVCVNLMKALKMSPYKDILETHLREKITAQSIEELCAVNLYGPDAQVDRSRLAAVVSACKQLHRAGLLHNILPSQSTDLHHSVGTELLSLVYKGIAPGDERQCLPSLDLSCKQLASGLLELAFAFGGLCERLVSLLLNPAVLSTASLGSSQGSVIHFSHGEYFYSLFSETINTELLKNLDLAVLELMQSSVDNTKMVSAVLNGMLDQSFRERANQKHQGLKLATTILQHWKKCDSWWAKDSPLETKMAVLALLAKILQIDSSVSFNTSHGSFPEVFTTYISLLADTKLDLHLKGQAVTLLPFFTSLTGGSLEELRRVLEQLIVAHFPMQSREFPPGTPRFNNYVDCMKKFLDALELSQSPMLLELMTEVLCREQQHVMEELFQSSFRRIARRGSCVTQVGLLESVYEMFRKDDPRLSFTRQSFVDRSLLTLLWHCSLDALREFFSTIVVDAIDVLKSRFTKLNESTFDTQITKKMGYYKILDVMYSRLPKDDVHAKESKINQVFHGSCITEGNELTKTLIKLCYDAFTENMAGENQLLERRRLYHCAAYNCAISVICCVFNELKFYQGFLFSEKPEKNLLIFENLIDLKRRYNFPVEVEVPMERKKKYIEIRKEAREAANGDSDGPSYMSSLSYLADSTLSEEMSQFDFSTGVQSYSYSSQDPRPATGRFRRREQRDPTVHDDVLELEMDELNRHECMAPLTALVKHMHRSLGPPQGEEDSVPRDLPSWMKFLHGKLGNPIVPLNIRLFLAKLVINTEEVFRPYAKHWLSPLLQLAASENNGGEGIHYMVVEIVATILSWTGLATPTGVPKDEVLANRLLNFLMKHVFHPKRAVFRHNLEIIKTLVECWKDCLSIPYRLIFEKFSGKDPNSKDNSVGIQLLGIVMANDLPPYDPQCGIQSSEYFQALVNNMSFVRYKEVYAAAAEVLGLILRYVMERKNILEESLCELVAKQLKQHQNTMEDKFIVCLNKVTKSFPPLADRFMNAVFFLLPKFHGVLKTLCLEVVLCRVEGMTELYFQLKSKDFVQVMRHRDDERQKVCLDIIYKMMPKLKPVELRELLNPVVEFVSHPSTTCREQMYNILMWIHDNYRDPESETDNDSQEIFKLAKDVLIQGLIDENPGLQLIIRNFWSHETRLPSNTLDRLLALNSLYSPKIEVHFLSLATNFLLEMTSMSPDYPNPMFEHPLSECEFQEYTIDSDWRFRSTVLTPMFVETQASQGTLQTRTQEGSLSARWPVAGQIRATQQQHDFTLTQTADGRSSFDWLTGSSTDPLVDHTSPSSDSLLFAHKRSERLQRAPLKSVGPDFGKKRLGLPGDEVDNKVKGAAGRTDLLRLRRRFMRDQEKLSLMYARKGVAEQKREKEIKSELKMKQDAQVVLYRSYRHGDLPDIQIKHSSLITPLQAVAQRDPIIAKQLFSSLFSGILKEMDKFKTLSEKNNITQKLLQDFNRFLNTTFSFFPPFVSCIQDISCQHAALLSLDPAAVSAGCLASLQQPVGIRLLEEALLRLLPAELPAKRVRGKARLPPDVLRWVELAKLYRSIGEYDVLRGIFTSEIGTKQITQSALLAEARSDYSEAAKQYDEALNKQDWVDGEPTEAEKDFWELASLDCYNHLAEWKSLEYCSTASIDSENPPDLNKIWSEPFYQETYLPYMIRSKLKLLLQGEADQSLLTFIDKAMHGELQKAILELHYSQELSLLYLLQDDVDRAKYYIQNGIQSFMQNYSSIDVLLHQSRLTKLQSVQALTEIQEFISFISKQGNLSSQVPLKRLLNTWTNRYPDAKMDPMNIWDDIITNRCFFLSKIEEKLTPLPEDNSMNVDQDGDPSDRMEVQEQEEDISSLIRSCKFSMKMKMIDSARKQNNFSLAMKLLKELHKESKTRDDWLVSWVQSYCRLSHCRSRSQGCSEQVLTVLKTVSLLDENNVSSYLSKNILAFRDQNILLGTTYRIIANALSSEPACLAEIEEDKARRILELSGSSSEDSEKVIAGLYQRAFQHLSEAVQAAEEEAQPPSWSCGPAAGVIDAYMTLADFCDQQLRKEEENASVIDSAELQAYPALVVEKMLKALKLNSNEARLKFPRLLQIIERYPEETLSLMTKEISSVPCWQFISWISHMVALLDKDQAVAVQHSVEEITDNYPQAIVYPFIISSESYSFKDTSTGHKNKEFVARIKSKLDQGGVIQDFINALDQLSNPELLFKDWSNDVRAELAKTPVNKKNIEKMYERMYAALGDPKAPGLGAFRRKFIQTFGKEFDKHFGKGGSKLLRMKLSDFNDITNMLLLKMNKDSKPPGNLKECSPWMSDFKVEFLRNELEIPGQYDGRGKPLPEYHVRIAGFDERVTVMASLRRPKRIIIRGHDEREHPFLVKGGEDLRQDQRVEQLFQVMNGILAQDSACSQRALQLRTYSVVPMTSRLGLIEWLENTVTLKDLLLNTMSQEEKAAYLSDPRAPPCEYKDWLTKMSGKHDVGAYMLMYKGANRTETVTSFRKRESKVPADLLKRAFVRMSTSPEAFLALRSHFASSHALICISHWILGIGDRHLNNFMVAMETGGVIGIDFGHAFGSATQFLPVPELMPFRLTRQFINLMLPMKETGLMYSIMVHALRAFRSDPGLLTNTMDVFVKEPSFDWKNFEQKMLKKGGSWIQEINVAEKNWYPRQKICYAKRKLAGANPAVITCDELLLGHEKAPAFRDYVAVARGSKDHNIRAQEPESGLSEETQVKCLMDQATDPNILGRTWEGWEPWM
Sequence of CaMKK2 (Q96RR4 whole entry): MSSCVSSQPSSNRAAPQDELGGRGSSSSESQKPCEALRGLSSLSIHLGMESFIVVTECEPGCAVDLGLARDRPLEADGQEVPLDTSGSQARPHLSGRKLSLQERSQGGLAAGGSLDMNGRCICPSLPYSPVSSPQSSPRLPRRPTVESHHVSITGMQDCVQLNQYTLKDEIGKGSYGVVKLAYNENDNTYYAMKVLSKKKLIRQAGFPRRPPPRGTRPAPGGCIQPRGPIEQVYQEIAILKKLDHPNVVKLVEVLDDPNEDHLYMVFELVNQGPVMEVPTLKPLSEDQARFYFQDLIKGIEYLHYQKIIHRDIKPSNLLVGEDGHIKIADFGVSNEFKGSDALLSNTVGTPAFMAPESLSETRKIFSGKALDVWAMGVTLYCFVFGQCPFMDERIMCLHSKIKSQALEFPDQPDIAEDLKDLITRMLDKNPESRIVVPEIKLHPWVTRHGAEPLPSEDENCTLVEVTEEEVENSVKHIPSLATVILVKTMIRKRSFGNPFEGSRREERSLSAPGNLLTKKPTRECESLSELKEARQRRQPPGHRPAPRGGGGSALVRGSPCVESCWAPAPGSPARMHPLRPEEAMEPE
Sequence of NDR1 (Q15208 whole entry): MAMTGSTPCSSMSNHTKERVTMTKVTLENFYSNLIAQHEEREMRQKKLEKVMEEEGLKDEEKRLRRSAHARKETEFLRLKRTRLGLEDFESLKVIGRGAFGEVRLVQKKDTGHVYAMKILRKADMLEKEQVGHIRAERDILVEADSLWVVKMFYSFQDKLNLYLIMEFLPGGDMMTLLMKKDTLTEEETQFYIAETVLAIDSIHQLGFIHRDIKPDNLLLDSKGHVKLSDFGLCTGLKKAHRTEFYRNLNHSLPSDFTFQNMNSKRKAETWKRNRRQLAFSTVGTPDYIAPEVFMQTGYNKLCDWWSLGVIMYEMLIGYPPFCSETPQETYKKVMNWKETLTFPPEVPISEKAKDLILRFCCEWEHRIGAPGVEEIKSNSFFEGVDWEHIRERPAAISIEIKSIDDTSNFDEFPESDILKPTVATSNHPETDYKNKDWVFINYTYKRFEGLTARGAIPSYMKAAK

With CN1CCN(Cc2ccc(Nc3ncc(Cl)c(Nc4ccccc4S(=O)(=O)N(C)C)n3)cc2)CC1 [TP-0903] the inhibition at 0.1 µM (AurA; [1]) was 58.2%, the inhibition at 0.1 µM (AurA; [2]) was 59.4% and the inhibition at 0.1 µM (CDK10) was 33.7%. For the same compound, the inhibition at 0.1 µM (CaMK1d) was 23.2%, the inhibition at 0.1 µM (CaMKK2; [1]) was 40.8% and the inhibition at 0.1 µM (CaMKK2; [2]) was 36.1%. For the same compound, the inhibition at 0.1 µM (DNAPK; EHPFLVKGGEDLR) was 11.7%, the inhibition at 0.1 µM (DNAPK; KGGSWIQEINVAEK) was 8.3% and the inhibition at 0.1 µM (IRAK3) was 92.5%. The “Inhibition vs DMSO” value (IRAK4; Lys1) was 13.2%, the “Inhibition vs DMSO” value (IRAK4; Lys2) was 18.7% and the inhibition at 0.1 µM (MAP2K5) was -1.6%. The inhibition at 0.1 µM (MAP3K3) was 13%, the inhibition at 0.1 µM (MAPKAPK3) was -45.7% and the “Inhibition vs DMSO” value (MST1) was 42.4%. For the same compound, the “Inhibition vs DMSO” value (MST3) was 55.3%, the inhibition at 0.1 µM (NDR1; [1]) was 3.7% and the inhibition at 0.1 µM (NDR1; [2]) was -11.4%. For the same compound, the inhibition at 0.1 µM (PAK2; [1]) was -46.5%, the inhibition at 0.1 µM (PAK2; Other, read-out: Inhibition vs DMSO) was -26.6% and the inhibition at 0.1 µM (PCTAIRE2) was 20.4%. For the same compound, the inhibition at 0.1 µM (PIK3CG) was -8.5%, the inhibition at 0.1 µM (TLK2) was 18% and the “Inhibition vs DMSO” value (TYK2 domain2) was -0.9%.
